Legend:
[1] = biological target: human α2δ-1 subunit of Cav2.2 calcium channel (Homo sapiens, UniProt P54289); experiment: Binding assay to human α2δ-1 subunit of Cav2.2 calcium channel ([3H]-Gabapentin); conditions: [3H]-Gabapentin 15 nM, human α2δ-1 enriched membranes
Method: Binding assay to human α2δ-1 subunit of Cav2.2 calcium channel. Human a26-1 enriched membranes (2.5 μg) were incubated with 15 nM of radiolabeled [3H]-Gabapentin in assay buffer containing Hepes-KOH 10 mM, pH 7.4. NSB (non specific binding) was measured by adding 10 μM pregabalin. The binding of the test compound was measured at either one concentration (% inhibition at 1 or 10 μM) or five different concentrations to determine affinity values (Ki). After 60 min incubation at 27° C., binding reaction was terminated by filtering through Multiscreen GF/C (Millipore) presoaked in 0.5% polyethyleneimine in Vacuum Manifold Station, followed by 3 washes with ice-cold filtration buffer containing 50 mM Tris-HCl, pH 7.4. Filter plates were dried at 60° C. for 1 hour and 30 μl of scintillation cocktail were added to each well before radioactivity reading. Readings were performed in a Trilux 1450 Microbeta radioactive counter (Perkin Elmer).

[2] = biological target: human norepinephrine transporter (NET) (Homo sapiens, UniProt P23975); experiment: Binding assay to human norepinephrine transporter (NET) ([3H]-Nisoxetin); conditions: [3H]-Nisoxetin 5 nM, human NET enriched membranes
Sequence of human norepinephrine transporter (NET) (P23975 whole entry): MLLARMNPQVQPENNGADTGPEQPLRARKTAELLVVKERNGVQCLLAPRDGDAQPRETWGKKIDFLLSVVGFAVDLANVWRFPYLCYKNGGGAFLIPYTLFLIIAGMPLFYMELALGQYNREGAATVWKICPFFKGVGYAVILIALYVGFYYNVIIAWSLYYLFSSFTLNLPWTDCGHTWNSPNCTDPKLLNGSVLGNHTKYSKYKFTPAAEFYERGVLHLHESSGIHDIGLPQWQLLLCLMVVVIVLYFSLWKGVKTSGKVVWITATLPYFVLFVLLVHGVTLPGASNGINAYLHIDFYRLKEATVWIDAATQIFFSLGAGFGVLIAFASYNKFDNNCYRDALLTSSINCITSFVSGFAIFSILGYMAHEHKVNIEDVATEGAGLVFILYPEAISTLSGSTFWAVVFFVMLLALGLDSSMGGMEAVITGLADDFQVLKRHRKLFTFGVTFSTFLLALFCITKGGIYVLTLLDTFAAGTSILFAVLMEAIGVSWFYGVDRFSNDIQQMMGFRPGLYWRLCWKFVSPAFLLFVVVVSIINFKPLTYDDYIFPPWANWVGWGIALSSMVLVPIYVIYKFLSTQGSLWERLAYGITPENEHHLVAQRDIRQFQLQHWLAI
Method: Binding assay to human norepinephrine transporter (NET).
Human norepinephrine transporter (NET) enriched membranes ([…]) were incubated with 5 nM of radiolabeled [3H]-Nisoxetin in assay buffer containing 50mM Tris-HCl, 120mM NaCl, 5mM KCI, pH 7.4. NSB (non specific binding) was measured by adding […] of desipramine. The binding of the test compound was measured at either one concentration (% inhibition at 1 or 10 μM) or five different concentrations to determine affinity values (Ki). After 60 min incubation at 4° C., binding reaction was terminated by filtering through Multiscreen GF/C (Millipore) presoaked in 0.5% polyethyleneimine in Vacuum Manifold Station, followed by 3 washes with ice-cold filtration buffer containing 50mM Tris-HCl, 0.9% NaCl, pH 7.4. Filter plates were dried at 60° C. for 1 hour and 30 µl of scintillation cocktail were added to each well before radioactivity reading. Readings were performed in a Trilux 1450 Microbeta radioactive counter (Perkin Elmer).

Sequence of human α2δ-1 subunit of Cav2.2 calcium channel (P54289 25-1103): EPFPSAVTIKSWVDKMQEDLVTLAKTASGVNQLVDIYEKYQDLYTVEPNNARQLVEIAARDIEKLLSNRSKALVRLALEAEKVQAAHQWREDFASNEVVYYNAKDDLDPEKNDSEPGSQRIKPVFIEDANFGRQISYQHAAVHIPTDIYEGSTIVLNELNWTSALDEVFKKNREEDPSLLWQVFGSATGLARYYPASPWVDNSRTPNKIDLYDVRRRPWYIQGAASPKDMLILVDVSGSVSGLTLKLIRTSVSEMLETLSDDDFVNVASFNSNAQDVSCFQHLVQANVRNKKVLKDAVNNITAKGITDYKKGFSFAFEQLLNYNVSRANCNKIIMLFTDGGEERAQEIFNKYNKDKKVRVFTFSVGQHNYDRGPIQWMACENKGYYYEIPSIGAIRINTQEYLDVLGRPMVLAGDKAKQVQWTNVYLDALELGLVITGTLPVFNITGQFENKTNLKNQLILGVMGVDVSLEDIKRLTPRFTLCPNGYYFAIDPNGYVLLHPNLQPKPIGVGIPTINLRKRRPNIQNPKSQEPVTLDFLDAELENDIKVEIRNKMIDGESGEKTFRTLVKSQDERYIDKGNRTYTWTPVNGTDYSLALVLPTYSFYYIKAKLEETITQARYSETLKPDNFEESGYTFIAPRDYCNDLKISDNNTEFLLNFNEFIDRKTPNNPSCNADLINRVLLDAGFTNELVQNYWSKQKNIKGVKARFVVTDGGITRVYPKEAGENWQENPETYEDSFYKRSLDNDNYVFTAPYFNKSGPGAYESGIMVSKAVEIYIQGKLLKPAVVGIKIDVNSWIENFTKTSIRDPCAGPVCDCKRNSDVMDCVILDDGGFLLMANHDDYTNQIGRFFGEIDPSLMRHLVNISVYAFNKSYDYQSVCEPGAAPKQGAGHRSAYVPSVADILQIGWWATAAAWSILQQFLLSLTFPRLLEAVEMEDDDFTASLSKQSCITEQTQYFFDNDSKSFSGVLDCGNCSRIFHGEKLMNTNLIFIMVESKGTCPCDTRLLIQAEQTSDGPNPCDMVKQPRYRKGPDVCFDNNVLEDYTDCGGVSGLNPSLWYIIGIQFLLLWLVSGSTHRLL

Row | Structure (SMILES) | Ki [1] [nM] | Ki [2] [nM]
1 | CNCC[C@H](Oc1ccc(CN2CCN(C)c3ccncc3C2=O)c(C)c1)c1ccccc1 [Example 1, (S)-1-Methyl-4-(2-methyl-4-(3-(methylamino)-1-phenylpropoxy)benzyl) -1,2,3,4-tetrahydro-5H-pyrido[4,3-e][1,4]cliazepin-5-one] | 100 to 500 | 100 to 500
2 | CNCC[C@H](Oc1ccc(CN2CCN(C)c3nc(OC)ncc3C2=O)c(C)c1)c1ccccc1 [Example 2, (S)-2-Methoxy-9-methyl-6-(2-methyl-4-(3-(methylamino)-1-phenylpropoxy)benzyl)-6,7,8,9-tetrahydro-5H-pyrimido[4,5-e][1,4]diazepin-5-one] | < 100 | < 100
3 | CNCC[C@H](Oc1ccc(CN2CCN(C)c3ncncc3C2=O)c(C)c1)c1ccccc1 [Example 3, (S)-9-Methyl-6-(2-methyl-4-(3-(methylamino)-1-phenylpropoxy)benzyl)-6,7,8,9-tetrahydro-5H-pyrimido[4,5-e][1,4]diazepin-5-one] | < 100 | < 100
4 | CNCC[C@H](Oc1ccc(CN2CCN(C)c3nc(N)ncc3C2=O)c(Cl)c1)c1ccccc1 [Example 4, (S)-2-Amino-6-(2-chloro-4-(3-(methylamino)-1-phenylpropoxy)benzyl)-9-methyl-6,7,8,9-tetrahydro-5H-pyrimido[4,5-e][1,4]diazepin-5-one] | < 100 | < 100
5 | CCNc1ncc2c(n1)N(C)CCN(Cc1ccc(O[C@@H](CCNC)c3ccccc3)cc1Cl)C2=O [Example 5, (S)-6-(2-Chloro-4-(3-(methylamino)-1-phenylpropoxy)benzyl)-2-(ethylamino)-9-methyl-6,7,8,9-tetrahydro-5H-pyrimido[4,5-e][1,4]diazepin-5-one] | < 100 | 100 to 500
6 | CCNc1ncc2c(n1)N(C)CCN(Cc1ncc(O[C@@H](CCNC)c3cccc(F)c3)cc1F)C2=O [Example 6, (S)-2-(Ethylamino)-6-((3-fluoro-5-(1-(3-fluorophenyl)-3-(methylamino)propoxy)pyridin-2-yl)methyl)-9-methyl-6,7,8,9-tetrahydro-5H-pyrimido[4,5-e][1,4]diazepin-5-one] | < 100 | 100 to 500
7 | CNCC[C@H](Oc1cnc(CN2CCN(C)c3nc(N)ncc3C2=O)c(F)c1)c1cccc(F)c1 [Example 7, (S)-2-Amino-6-((3-fluoro-5-(1-(3-fluorophenyl)-3-(methylamino)propoxy)pyridin-2-yl)methyl)-9-methyl-6,7,8,9-tetrahydro-5H-pyrimido[4,5-e][1,4]diazepin-5-one] | < 100 | < 100
8 | CNCC[C@H](Oc1ccc(CN2CCN(C)c3ccncc3C2=O)c(F)c1)c1ccccc1 [Example 8, (S)-4-(2-Fluoro-4-(3-(methylamino)-1-phenylpropoxy)benzyI)-1-methyl-1,2,3,4-tetrahydro-5H-pyrido[4,3-e][1,4]diazepin-5-one] | < 100 | 100 to 500
9 | CNCC[C@H](Oc1ccc(CN2CCN(C)c3nc(OC)ncc3C2=O)c(F)c1)c1ccccc1 [Example 9, (S)-6-(2-Fluoro-4-(3-(methylamino)-1-phenylpropoxy)benzyl)-2-methoxy-9-methyl-6,7,8,9-tetrahydro-5H-pyrimido[4,5-e][1,4]diazepin-5-one] | < 100 | 100 to 500
10 | CNCC[C@H](Oc1ccc(CN2CCN(C)c3ncncc3C2=O)c(F)c1)c1ccccc1 [Example 10, (S)-6-(2-Fluoro-4-(3-(methylamino)-1-phenylpropoxy)benzyl)-9-methyl-6,7,8,9-tetrahydro-5H-pyrimido[4,5-e][1,4]diazepin-5-one] | < 100 | < 100
11 | CNCC[C@H](Oc1ccc(CN2CCN(C)c3nc(N)ncc3C2=O)c(F)c1)c1ccccc1 [Example 11, (S)-2-Amino-6-(2-fluoro-4-(3-(methylamino)-1-phenylpropoxy)benzyl)-9-methyl-6,7,8,9-tetrahydro-5H-pyrimido[4,5-e][1,4]diazepin-5-one] | < 100 | 100 to 500
12 | CNCC[C@H](Oc1ccc(CN2CCN(C)c3cc(OC)ncc3C2=O)c(F)c1)c1ccccc1 [Example 12, (S)-4-(2-Fluoro-4-(3-(methylamino)-1-phenylpropoxy)benzyl)-8-methoxy-1-methyl-1,2,3,4-tetrahydro-5H-pyrido[4,3-e][1,4]diazepin-5-one] | < 100 | 100 to 500
13 | CCNc1ncc2c(n1)N(C)CCN(Cc1ccc(O[C@H](CCNC)c3cccc(F)c3)cc1F)C2=O [Example 13, (R)-2-(Ethylamino)-6-(2-fluoro-4-(1-(3-fluorophenyl)-3-(methylamino)propoxy)benzyl)-9-methyl-6,7,8,9-tetrahydro-5H-pyrimido[4,5-e][1,4]diazepin-5-one] | ≥ 3000 | 500 to 1000
14 | CCNc1ncc2c(n1)N(C)CCN(Cc1ccc(O[C@@H](CCNC)c3cccc(F)c3)cc1F)C2=O [Example 14, (S)-2-(Ethylamino)-6-(2-fluoro-4-(1-(3-fluorophenyl)-3-(methylamino)propoxy)benzyl)-9-methyl-6,7,8,9-tetrahydro-5H-pyrimido[4,5-e][1,4]diazepin-5-one] | < 100 | 100 to 500
15 | CNCC[C@H](Oc1cnc(CN2CCN(C)c3cc(OC)ncc3C2=O)c(F)c1)c1cccs1 [Example 15, (S)-4-((3-Fluoro-5-(3-(methylamino)-1-(thiophen-2-yl)propoxy)pyridin-2-yl)methyl)-8-methoxy-1-methyl-1,2,3,4-tetrahydro-5H-pyrido[4,3-e][1,4]diazepi n-5-one.] | < 100 | < 100

Source: patent US20210395254A1, “NEW TETRAHYDROPYRIMIDODIAZEPIN AND TETRAHYDROPYRIDODIAZEPIN COMPOUNDS FOR TREATING PAIN AND PAIN RELATED CONDITIONS” (ESTEVE PHARMACEUTICALS, S.A., priority 2018, published 2021)
